How the values were obtained:
[1] = test system: Rabbit plaque aorta or normal rabbit aorta; experiment: Ex vivo blood vessel binding assay; design: species or system New Zealand white rabbits; conditions: radiolabeled compound incubated with rabbit aorta (0.5 cm) in phosphate buffered saline for 2 hours at 37° C; bound compound as percentage of the incubated compound
Source text: Normal aorta was obtained from New Zealand white rabbits. Aorta bearing atherosclerotic plaque was obtained from New Zealand white rabbits balloon stripped along the abdominal aorta and placed on a high fat diet (0.5% cholesterol) for 16-22 weeks. Vascular injury was produced with a 3-F Fogarty catheter along the abdominal aorta and left iliofemoral artery. This procedure generates an accelerated complex lesion development with a lipid rich core covered by a fibrous cap in rabbits. Rabbit plaque aorta or normal rabbit aorta (0.5 cm) was incubated with 10 nCi of ^14C labeled compound or 1.5 μCi of ^99m Tc labeled compound or 0.135 μCi of ^111In labeled compound or 0.135 μCi of ^68Ga labeled compound or 0.135 µCi of ^153Gd labeled compound diluted in phosphate buffered saline (450 μL) for 2 hours at 37° C. The supernatant from this sample was collected and analyzed by HPLC to determine compound stability in presence of blood vessels. The blood vessel tissue was then washed with phosphate buffered saline (3×10 mL). Phosphate buffered saline (10 ml) was added to the tissue and incubated at 37° C. for 1 hour. The tissue was then washed with phosphate buffered saline (3×10 mL). The washed tissue was oxidized in a tissue oxidizer for C-14 labeled compounds. The counts in the oxidized tissue were determined on a beta counter. Blood vessels incubated with ^99m Tc labeled compound or ^111In labeled compound or ^68Ga labeled compound or ^153Gd labeled compound were counted on a gamma counter. The amount of compound bound to the tissue was determined as a percentage of the incubated compound. This was calculated using the following formula: [formula]

[2] = test system: aorta of apolipoprotein E (apoE) knockout mouse; experiment: In vivo ApoE mouse aorta uptake study; conditions: 60 min postinjection; for Aorta (% ID/g): ApoE mouse on high-fat diet 37-41 weeks, tail vein bolus; for Aorta/Blood Ratio: ApoE mouse, calculated from the % ID/g data
Procedure: Mice were fed a high-fat diet to accelerate plaque formation and compounds were tested in the mice between 37-41 weeks on diet. Test compounds were radiolabeled (^14C, ^99mTc, or ^111In as described above) and administered at 0.02-4.0 mCi/kg to anesthetized mice in a single, bolus injection via the tail vein. Blood samples were collected via the tail between 0-30 minutes postinjection for pharmacokinetic analysis and mice were euthanized by CO2 at 60 minutes for tissue harvesting. The aorta were flushed with saline through the left ventricle exiting via the femoral vein. The aorta were then removed from the heart to the renal bifurcation and additional tissue samples collected (blood, muscle, liver, kidney, heart, lung, spleen and innominate artery). All samples were weighed and assayed for radioactivity. Tissue uptake is expressed as percent of injected dose per gram of tissue (% ID/g). The aorta to blood ratios were calculated from the % ID/g data.

Row | Aorta (% ID/g) [2] [% ID/g] | Aorta/Blood Ratio [2] | Compound | Tissue Binding % [1] [%]
1 |  |  | CC(C)CC(NC(=O)OC(C)(C)C)C(=O)NNC(=O)NN (stereo not drawn) [Example 124, Boc-d-Leu-NHNH—CO—NHNH2] | 5.85
2 | 1.3 | 0.8 | CC(C)C[C@@H](NC(=O)OC(C)(C)C)C(=O)NCC(=O)NCCCCN [Example 140, Boc-d-Leu-Gly-NH-Butyl-NH2] | 0.52
3 |  |  | Boc-Aib-Ahxh-H [Example 130] | 3.33
4 | 2.1 | 1.2 | Boc-L-d-Leu-Ahxh-H [Example 150] | 5.36
5 |  |  | Boc-Leu-PABA-CO-d-Leu-Ahxh-H [Example 127] | 24.22
6 | 5.7 | 2.9 | Boc-cLeu-Ahxh-H [Example 133] | 9.10
7 |  |  | Boc-d-Ala-Ahxh-H [Example 134] | 5.72
8 | 9.0 | 2.9 | Boc-d-Aphe(ε-Leu(Boc))-Ahxh-H [Example 151] | 26.92
9 |  |  | Boc-d-Arg(Pmc)-Ahxh-H [Example 131] | 5.19
10 |  |  | Boc-d-Glu(tBu)-Ahxh-H [Example 132] | 2.47
11 | 8.6 | 6.7 | Boc-d-Leu-Ambh-H [Example 138] | 21.11
12 | 9.3 | 4.6 | Boc-d-Leu-Apah-H [Example 121] | 30.55
13 |  |  | Boc-d-Leu-N(Me)-NH-Ahx-H [Example 141] | 0.75
14 | 1.3 | 0.6 | Boc-d-Leu-N(Me)-NH-Ahx-NH2 [Example 126] | 2.97
15 | 4.0 | 3.0 | Boc-d-Leu-NHNH2 [Example 122] | 13.99
16 |  |  | Boc-d-Leu-NHNH—CO-(PEG)4-NH2 [Example 123] | 9.74
17 |  |  | Boc-d-Lys(e-Leu(Boc))-Ahxh-H [Example 136] | 9.15
18 | 8.1 | 3.3 | Boc-d-Phe-Ahxh-H [Example 129] | 14.42
19 |  |  | Boc-βLeu-Ahxh-H [Example 135] | 2.30
20 |  |  | H-Ahxh-d-Leu-Boc [Example 137] | 1.43
21 | 3.8 | 2.1 | H-Aic-Ambh-DTPA [Example 207] | 5.26
22 | 6.5 | 0.9 | H-Pro-Ahxh-DTPA [Example 163] | 2.61

Row | Aorta (% ID/g) [2] [% ID/g] | Aorta/Blood Ratio [2] | Compound | Tissue Binding % [1] [%]
23 | 2.8 | 2.2 | H-cLeu-Ahxh-DTPA [Example 188] | 3.91
24 | 4.6 | 1.9 | H-cLeu-Ambh-DTPA [Example 195] | 9.52
25 | 12.6 | 10.8 | H-d-2-Nal-Ambh-DTPA [Example 212] | 18.78
26 | 6.2 | 3.0 | H-d-Aphe-Ahxh-DTPA [Example 193] | 8.69
27 | 7.9 | 5.9 | H-d-Bip-Ahxh-DTPA [Example 175] | 32.09
28 | 7.1 | 4.7 | H-d-Bip-NHNH-DTPA [Example 162] | 6.39
29 | 6.8 | 3.3 | H-d-Cha-Ahxh-DTPA [Example 194] | 16.33
30 | 9.8 | 7.8 | H-d-Cha-Ambh-DTPA [Example 196] | 8.25
31 | 7.0 | 5.4 | H-d-Cha-Apah-DTPA [Example 170] | 7.55
32 |  |  | H-d-Cha-Inph-DTPA [Example 197] | 6.97
33 | 8.0 | 4.9 | H-d-Cys(Bzl)-Ahxh-DTPA [Example 167] | 9.74
34 |  |  | H-d-Cys(Bzl)-Ambh-DTPA [Example 179] | 9.67
35 | 9.5 | 5.8 | H-d-Cys(Bzl)-Apah-DTPA [Example 173] | 13.82
36 | 9.8 | 7.3 | H-d-Cys(Bzl)-Apph-DTPA [Example 181] | 13.91
37 | 11.2 | 8.1 | H-d-H2phe-Ambh-DTPA [Example 185] | 10.64
38 | 3.7 | 1.2 | H-d-His-Ahxh-DTPA [Example 172] | 4.22
39 | 7.5 | 5.8 | H-d-Hphe-Ahxh-DTPA [Example 168] | 9.17
40 | 9.9 | 3.9 | H-d-Hphe-Ambh-Ahx-DTPA [Example 211] | 18.09
41 | 8.3 | 13.2 | H-d-Hphe-Apph-DTPA [Example 180] | 18.24
42 | 8.4 | 9.8 | H-d-Hphe-Pheh-AEEA-DTPA [Example 213] | 26.68
43 | 10.5 | 11.2 | H-d-Hphe-mAmbh-DTPA [Example 210] | 13.13
44 |  |  | H-d-Leu-Apah-DOTA [Example 160] | 9.59

Row | Aorta (% ID/g) [2] [% ID/g] | Aorta/Blood Ratio [2] | Compound | Tissue Binding % [1] [%]
45 | 3.3 | 1.0 | H-d-Leu-NHNH-DTPA [Example 189] | 1.08
46 | 4.3 | 2.1 | H-d-Leu-XInph-DTPA [Example 201] | 2.94
47 | 5.1 | 2.2 | H-d-Nle-Ahxh-DTPA [Example 200] | 2.72
48 | 7.8 | 6.3 | H-d-Phe(4-NHBz)-Ambh-DTPA [Example 205] | 8.83
49 | 7.9 | 8.7 | H-d-Phe(CF3)-Apah-DTPA [Example 177] | 13.53
50 | 6.7 | 5.3 | H-d-Phe(F5)-Ambh-DTPA [Example 204] | 16.11
51 | 8.7 | 4.9 | H-d-Phe-Ambh-DTPA [Example 161] | 7.75
52 | 11.0 | 4.5 | H-d-Phe-Apph-Ahx-DTPA [Example 182] | 12.02
53 | 10.8 | 9.6 | H-d-Phe-Bbh-DTPA [Example 209] | 20.9
54 |  |  | H-d-Phe-Inph-DTPA [Example 199] | 3.36
55 | 2.3 | 1.9 | H-d-Phe-NHNH-DTPA [Example 192] | 1.78
56 | 4.3 | 4.0 | H-d-Phe-XInph-DTPA [Example 202] | 5.44
57 |  |  | H-d-Pro-Ahxh-DTPA [Example 165] | 5.51
58 | 4.0 | 3.3 | H-d-Ser(Bzl)-Ahxh-DTPA [Example 166] | 5.91
59 | 6.1 | 5.4 | H-d-Stya-Ambh-DTPA [Example 187] | 13.66
60 | 8.3 | 4.2 | H-d-Tic-Apah-DTPA [Example 178] | 6.00
61 | 12.5 | 11.3 | H-d-Trp-Apph-ETPA [Example 184] | 13.08
62 | 5.8 | 3.2 | H-d-Tyr(Bzl)-Ambh-DTPA [Example 206] | 19.62
63 | 6.1 | 5.1 | H-d-Tyr(Et)-Apah-DTPA [Example 169] | 13.53
64 |  |  | H-d-Val-Ambh-DTPA [Example 198] | 5.26
65 |  |  | N,N-Me2-d-Leu-Ahxh-H [Example 125] | 4.63
